Data as given in PMC7534330, “UHPLC-MS/MS method for pharmacokinetic and bioavailability determination of five bioactive components in raw and various processed products of Polygala tenuifolia in rat plasma” (Pharmaceutical Biology, 2020).

Tests used:
[1] = Pharmacokinetics of five components in rat plasma after oral administration of RPT, LPT and HPT extracts (UHPLC-MS/MS); conditions: male, SD, in vivo, 1.9 g/kg; for AUC(0-t): AUC0-t; for AUC(0-inf): AUC0-∞; for MRT last: MRT0-t; for half-life: t1/2
Method: (§1) A Thermo Hypersil Gold C18 column (3.0 × 100 mm, i.d.; 3 μm) was used for chromatographic separation. An aqueous 10 mM ammonium acetate solution (A) and acetonitrile (B) were selected as the mobile phase components. The optimal gradient program involved the following steps: 5% B (0–1 min), changing to 85% B (1–3.5 min), 85% B (3.5–4.0 min), changing to 5% B (4.0–4.1 min) and 5% B (4.1–5.0 min). The flow rate was set to 0.4 mL/min, the autosampler was maintained at 4 °C and the injection volume was 5 μL.
(§2) UHPLC-MS/MS was conducted by an Applied Biosystems (AB) Sciex Exion LC system (Foster City, CA) connected to a 6500 + triple quad tandem mass spectrometer with an electrospray ionization source. All detection and quantifications were carried out in positive multiple reaction monitoring (MRM) mode. The optimized parameters were programmed as follows: ion source temperature, 500 °C; curtain gas pressure, 30 kPa; ion source gas 1 pressure, 55 kPa; ion source gas 2 pressure, 55 kPa; and ion spray voltage, […]. The chemical structures and ion mass spectra of targeted compounds are shown in Figure 1. The precursor ion and product ion were m/z 517.1 → 174.9 for A5, m/z 547.0 → 204.9 for A6, m/z 753.2 → 205.2 for DSS, m/z 681.3 → 443.3 for TFSA, m/z 236.8 → 103.2 for TMCA and m/z 136.9 → 92.9 for IS. All data were acquired by using AB Sciex Analyst software (version 1.6.3).
(§3) After thawing the frozen blood samples at room temperature, a 100 μL aliquot of plasma was spiked with 50 μL of the IS working solution in 2 mL EP tubes, and 750 μL of methanol was added into each of the tubes. Then, these tubes were mixed on a multi-tube Vortexer for 0.5 min before centrifugation at 11,800×g for 10 min. Finally, 200 μL of the obtained supernatant was transferred to a fresh autosampler vial, and then 5 μL of the sample was injected for analysis.
Male SD rats were randomly divided into four groups (n = 6 in each group), including the RPT group, LPT group, HPT group and control group. All oral administration samples were mixed with 0.5% CMC-Na (w/v) and then given to rats at a dose equivalent to 1.9 g/kg of RPT extract. The control group was orally treatment with equal volume of 0.5% CMC-Na solution. After a single administration, all blood samples were collected from the orbital vein into heparinized centrifuge tubes before administration (0 h) and at 0.083, 0.17, 0.25, 0.5, 0.75, 1, 1.5, 2, 3, 5, 8 and 12 h after administration and then centrifuged at 4 °C and 11,800×g for 10 min. The separated supernatant samples were preserved at −80 °C until they were measured.
(§4) The elementary pharmacokinetic parameters of plasma samples were analyzed by DAS 2.0 pharmacokinetic software. One-way analysis of variance (ANOVA) was used for statistical comparison for pharmacokinetic and interaction studies. A p-value < 0.05 indicated a significant difference. The main parameters considered were as follows: AUC0–∞ (the area under the blood concentration-time curve from zero to infinity initial plasma concentration), MRT (the mean residence time), Cmax (peak plasma concentration) and Tmax (time to reach Cmax for oral dose), t1/2 (elimination half-life) (He et al. [2015]). The absolute bioavailability (F) was evaluated as follows: F(%)=(AUCoral×Dosei.v.)/(AUCi.v.×Doseoral)×100%

[2] = Pharmacokinetics and absolute bioavailability of five compounds after oral and i.v. administration (UHPLC-MS/MS); assay type: in vivo; conditions: rat, in vivo; for AUCΔ0-t (dose-normalized) / AUCΔ0-∞ (dose-normalized) / CΔmax (dose-normalized) / half-life / Tmax: SD
Method: as §1, §2, §3
The SD rats were randomly divided into oral and i.v. groups for A5, A6, DSS, TFSA and TMCA administration (n = 6 in each group). The oral doses of A5, A6, DSS, TFSA and TMCA groups were 7.40, 11.60, 16.00, 50.00 and 3.11 mg/kg, respectively, and the corresponding i.v. doses were 0.74, 1.16, 1.60, 5.00 and 0.31 mg/kg, respectively. Blood samples were collected from the suborbital vein into heparinized tubes before and 0, 0.083, 0.17, 0.25, 0.5, 1, 2, 3, 5 and 8 h after administration. The treatment method of blood samples was the same as that mentioned above.
as §4

[3] = Stability of the five analytes in rat plasma; assay type: in vitro ADME; conditions: rat; for Long-term stability, Mean: 4 weeks; for Short-term stability, Mean: 5 h; for Auto-sampler stability, Mean: 24 h
Method: Stock standards of A5, A6, DSS, TFSA, TMCA and IS were prepared in methanol at a concentration of 1 mg/mL. A series of working standard solutions of the targeted compounds ranging from 10 to 20,000 ng/mL and the IS solution at 600 ng/mL were prepared by diluting the stock solutions with methanol and maintained at −20 °C. Calibration standards were freshly prepared by spiking the series of standard solutions (30 μL) including the IS into blank rat plasma (270 μL) to achieve concentrations of 1, 10, 50, 100, 500, 1000, 1600 and 2000 ng/mL. Quality control (QC) samples were prepared independently at low (2 ng/mL), medium (600 ng/mL) and high (1600 ng/mL) concentrations following the same method for the five compounds.
Stability studies included short-term stability (5 h at room temperature, i.e. 25 °C), freeze-thaw stability (three consecutive freeze-thaw cycles from −20 °C to room temperature), autosampler stability (24 h storage in the autosampler at 4 °C) and long-term stability (4 weeks storage at −80 °C). The stability data of all analytes are presented in Supplementary Table S4.

| Cmax [1] | AUCΔ0-t (dose-normalized) ([2]; iv) | AUCΔ0-∞ (dose-normalized) ([2]; iv) | CΔmax (dose-normalized) ([2]; iv) | half-life ([2]; iv) | AUCΔ0-t (dose-normalized) ([2]; po) | AUCΔ0-∞ (dose-normalized) ([2]; po) | CΔmax (dose-normalized) ([2]; po) | half-life ([2]; po) | Tmax ([2]; po) | F, absolute bioavailability [2] | Freeze-thaw stability, Mean ([3]; 2 ng/mL) | Freeze-thaw stability, Mean ([3]; 600 ng/mL) | Freeze-thaw stability, Mean ([3]; 1600 ng/mL) | Long-term stability, Mean ([3]; 2 ng/mL) | Long-term stability, Mean ([3]; 600 ng/mL) | Long-term stability, Mean ([3]; 1600 ng/mL) | Short-term stability, Mean ([3]; 2 ng/mL) | Short-term stability, Mean ([3]; 600 ng/mL) | Short-term stability, Mean ([3]; 1600 ng/mL) | Structure (SMILES) | other results |
| --- | --- | --- | --- | --- | --- | --- | --- | --- | --- | --- | --- | --- | --- | --- | --- | --- | --- | --- | --- | --- | --- |
| 169 ± 16.1 ng/mL | 368.32 ± 57.16 ng·h/mL | 368.34 ± 57.18 ng·h/mL | 1784.32 ± 136.39 ng/mL | 1.22 ± 0.07 h | 11.99 ± 2.01 ng·h/mL | 12.01 ± 2.00 ng·h/mL | 9.21 ± 2.30 ng/mL | 1.27 ± 0.55 h | 0.25 h | 3.25 % of dose | 92.1% | 93.5% | 101.6% | 88.6% | 97.9% | 96.6% | 94.4% | 95.2% | 98.3% | COc1cc(/C=C/C(=O)O[C@H]2[C@H](O)[C@@H](CO)O[C@@]2(CO)O[C@H]2O[C@H](CO)[C@@H](O)[C@H](O)[C@H]2O)ccc1O [A5, Sibiricose A5] | Tmax [1]: 2.60 ± 0.71 h; AUC(0-t) [1]: 552 ± 31.1 ng·h/mL; AUC(0-inf) [1]: 553 ± 47.1 ng·h/mL; MRT last [1]: 2.64 ± 0.18 h; Tmax ([1]; Tmax): 2 h; half-life [1]: 1.23 ± 0.21 h; Auto-sampler stability, Mean ([3]; 2 ng/mL): 89.4%; Auto-sampler stability, Mean ([3]; 600 ng/mL): 94.2%; Auto-sampler stability, Mean ([3]; 1600 ng/mL): 98.7% |
| 183 ± 30.8 ng/mL | 299.15 ± 100.23 ng·h/mL | 299.16 ± 100.23 ng·h/mL | 1204.66 ± 249.66 ng/mL | 0.59 ± 0.1 h | 8.82 ± 2.40 ng·h/mL | 8.82 ± 2.40 ng·h/mL | 4.95 ± 1.64 ng/mL | 0.62 ± 0.16 h | 0.5 h | 2.95 % of dose | 92.4% | 91.5% | 98.3% | 93.5% | 96.3% | 96.5% | 91.5% | 94.7% | 97.4% | COc1cc(C=CC(=O)OC2C(O)C(CO)OC2(CO)OC2OC(CO)C(O)C(O)C2O)cc(OC)c1O (stereo not shown) [A6, Sibiricose A6] | AUC(0-t) [1]: 570 ± 179 ng·h/mL; AUC(0-inf) [1]: 572 ± 179 ng·h/mL; MRT last [1]: 3.21 ± 0.78 h; Tmax ([1]; Tmax): 3.2 ± 1.64 h; half-life [1]: 1.43 ± 0.12 h; Auto-sampler stability, Mean ([3]; 2 ng/mL): 87.5%; Auto-sampler stability, Mean ([3]; 600 ng/mL): 92.1%; Auto-sampler stability, Mean ([3]; 1600 ng/mL): 97.3% |
| 74.1 ± 30.2 ng/mL | 106.32 ± 12.09 ng·h/mL | 107.00 ± 12.09 ng·h/mL | 682.88 ± 120.92 ng/mL | 0.98 ± 0.27 h | 2.51 ± 1.07 ng·h/mL | 2.86 ± 1.33 ng·h/mL | 4.39 ± 1.69 ng/mL | 1.01 ± 0.45 h | 0.17 h | 2.36 % of dose | 89.3% | 97.3% | 99.7% | 95.3% | 97.3% | 93.2% | 95.3% | 98.5% | 98.1% | COc1cc(C=CC(=O)OCC2OC(OC3(CO)OC(CO)C(O)C3OC(=O)C=Cc3cc(OC)c(O)c(OC)c3)C(O)C(O)C2O)cc(OC)c1O (stereo not shown) [DSS, 3,6′-disinapoyl sucrose] | Auto-sampler stability, Mean ([3]; 2 ng/mL): 92.1%; Auto-sampler stability, Mean ([3]; 600 ng/mL): 97.7%; Auto-sampler stability, Mean ([3]; 1600 ng/mL): 98.6% |
| 107 ± 47.7 ng/mL | 163.79 ± 11.83 ng·h/mL | 163.80 ± 11.83 ng·h/mL | 375.56 ± 13.65 ng/mL | 0.49 ± 0.06 h | 1.92 ± 0.85 ng·h/mL | 1.92 ± 0.85 ng·h/mL | 1.88 ± 0.76 ng/mL | 0.92 ± 0.21 h | ~0.19 h | 1.17 % of dose | 96.5% | 96.3% | 97.4% | 89.9% | 96.3% | 96.2% | 97.6% | 97.9% | 98.5% | COc1cc(/C=C/C(=O)O[C@H]2[C@H](O)[C@@H](CO)O[C@@]2(CO)O[C@H]2O[C@H](COC(=O)c3ccc(O)cc3)[C@@H](O)[C@H](O)[C@H]2O)cc(OC)c1OC [TFSA, tenuifoliside A] | AUC(0-t) [1]: 284 ± 185 ng·h/mL; AUC(0-inf) [1]: 297 ± 194 ng·h/mL; MRT last [1]: 2.92 ± 0.58 h; Auto-sampler stability, Mean ([3]; 2 ng/mL): 96.6%; Auto-sampler stability, Mean ([3]; 600 ng/mL): 98.2%; Auto-sampler stability, Mean ([3]; 1600 ng/mL): 96.3% |
